# Source: PubChem BioAssay (NCI)
#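 1) Cells in 96-well plates. 2) Compound, 48 h, 5 concentrations. 3) Linear interpolation between surrounding doses. 4) Unreached endpoint = highest concentration. TGI marks complete inhibition of growth.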
# Columns and labels:
# Test in all cases: inhibition of tumour cell growth, NCI panel, 48 h
# M19-MEL melanoma = test system: M19-MEL melanoma
# SK-MEL-5 melanoma = test system: SK-MEL-5 melanoma
# IGROV1 ovarian = test system: IGROV1 ovarian
# EKVX NSCLC = test system: EKVX NSCLC
# HOP-18 NSCLC = test system: HOP-18 NSCLC
# NCI-H226 lung = test system: NCI-H226 lung
# MOLT-4 leukemia = test system: MOLT-4 leukemia
# OVCAR-8 ovarian = test system: OVCAR-8 ovarian
# HL-60(TB) leukemia = test system: HL-60(TB) leukemia
# HCT-116 colon = test system: HCT-116 colon
# OVCAR-5 ovarian = test system: OVCAR-5 ovarian
# NCI-H23 lung = test system: NCI-H23 lung
# ACHN renal = test system: ACHN renal
# SR leukemia = test system: SR leukemia
# SNB-19 CNS = test system: SNB-19 CNS
# SF-295 CNS = test system: SF-295 CNS
# RPMI-8226 leukemia = test system: RPMI-8226 leukemia
# HCT-15 colon = test system: HCT-15 colon
# SF-268 CNS = test system: SF-268 CNS
# UO-31 renal = test system: UO-31 renal
# SK-OV-3 ovarian = test system: SK-OV-3 ovarian
# SK-MEL-2 melanoma = test system: SK-MEL-2 melanoma
# HCC-2998 colon = test system: HCC-2998 colon
# SK-MEL-28 melanoma = test system: SK-MEL-28 melanoma
# K-562 leukemia = test system: K-562 leukemia
# SNB-78 CNS = test system: SNB-78 CNS
# KM20L2 colon = test system: KM20L2 colon
# OVCAR-4 ovarian = test system: OVCAR-4 ovarian
# SNB-75 CNS = test system: SNB-75 CNS
# COLO 205 colon = test system: COLO 205 colon
# A549 NSCLC = test system: A549 NSCLC
# U251 CNS = test system: U251 CNS
# 786-0 renal = test system: 786-0 renal
# NCI-H460 lung = test system: NCI-H460 lung
# LXFL 529 NSCLC = test system: LXFL 529 NSCLC
# HT29 colon = test system: HT29 colon
# SN12C renal = test system: SN12C renal
# NCI-H522 lung = test system: NCI-H522 lung
# DLD-1 colon = test system: DLD-1 colon
# UACC-62 melanoma = test system: UACC-62 melanoma
# RXF 393 renal = test system: RXF 393 renal
# DMS 114 small cell lung = test system: DMS 114 small cell lung
# RXF-631 renal = test system: RXF-631 renal
# OVCAR-3 ovarian = test system: OVCAR-3 ovarian
# M14 melanoma = test system: M14 melanoma
# SF-539 CNS = test system: SF-539 CNS
# KM12 colon = test system: KM12 colon
# UACC-257 melanoma = test system: UACC-257 melanoma
# SW-620 colon = test system: SW-620 colon
# MALME-3M melanoma = test system: MALME-3M melanoma
# CCRF-CEM leukemia = test system: CCRF-CEM leukemia
# HOP-92 NSCLC = test system: HOP-92 NSCLC
# DMS 273 small cell lung = test system: DMS 273 small cell lung
# HOP-62 NSCLC = test system: HOP-62 NSCLC
# CAKI-1 renal = test system: CAKI-1 renal
# TK-10 renal = test system: TK-10 renal
# A498 renal = test system: A498 renal
# LOX IMVI melanoma = test system: LOX IMVI melanoma
# XF 498 CNS = test system: XF 498 CNS
structure (smiles),measurement,setting,value
O=C1c2ccccc2C(=O)N1CCn1nc(-c2ccccc2)cc(-c2ccccc2)c1=O,TGI,M19-MEL melanoma,> 100 µM
same,TGI,SK-MEL-5 melanoma,> 100 µM
same,TGI,IGROV1 ovarian,> 100 µM
same,TGI,EKVX NSCLC,> 100 µM
same,TGI,HOP-18 NSCLC,> 100 µM
same,TGI,NCI-H226 lung,> 100 µM
same,TGI,MOLT-4 leukemia,> 100 µM
same,TGI,OVCAR-8 ovarian,> 100 µM
same,TGI,HL-60(TB) leukemia,39 µM
same,TGI,HCT-116 colon,> 100 µM
same,TGI,OVCAR-5 ovarian,> 100 µM
same,TGI,NCI-H23 lung,> 100 µM
same,TGI,ACHN renal,> 100 µM
same,TGI,SR leukemia,69.8 µM
same,TGI,SNB-19 CNS,> 100 µM
same,TGI,SF-295 CNS,> 100 µM
same,TGI,RPMI-8226 leukemia,36.9 µM
same,TGI,HCT-15 colon,> 100 µM
same,TGI,SF-268 CNS,> 100 µM
same,TGI,UO-31 renal,> 100 µM
same,TGI,SK-OV-3 ovarian,> 100 µM
same,TGI,SK-MEL-2 melanoma,> 100 µM
same,TGI,HCC-2998 colon,> 100 µM
same,TGI,SK-MEL-28 melanoma,> 100 µM
same,TGI,K-562 leukemia,> 100 µM
same,TGI,SNB-78 CNS,> 100 µM
same,TGI,KM20L2 colon,> 100 µM
same,TGI,OVCAR-4 ovarian,> 100 µM
same,TGI,SNB-75 CNS,> 100 µM
same,TGI,COLO 205 colon,> 100 µM
same,TGI,A549 NSCLC,> 100 µM
same,TGI,U251 CNS,> 100 µM
same,TGI,786-0 renal,> 100 µM
same,TGI,NCI-H460 lung,> 100 µM
same,TGI,LXFL 529 NSCLC,> 100 µM
same,TGI,HT29 colon,> 100 µM
same,TGI,SN12C renal,> 100 µM
same,TGI,NCI-H522 lung,> 100 µM
same,TGI,DLD-1 colon,> 100 µM
same,TGI,UACC-62 melanoma,> 100 µM
same,TGI,RXF 393 renal,> 100 µM
same,TGI,DMS 114 small cell lung,> 100 µM
same,TGI,RXF-631 renal,> 100 µM
same,TGI,OVCAR-3 ovarian,> 100 µM
same,TGI,M14 melanoma,> 100 µM
same,TGI,SF-539 CNS,> 100 µM
same,TGI,KM12 colon,> 100 µM
same,TGI,UACC-257 melanoma,> 100 µM
same,TGI,SW-620 colon,> 100 µM
same,TGI,MALME-3M melanoma,> 100 µM
same,TGI,CCRF-CEM leukemia,> 100 µM
same,TGI,HOP-92 NSCLC,96.8 µM
same,TGI,DMS 273 small cell lung,> 100 µM
same,TGI,HOP-62 NSCLC,> 100 µM
c1ccc(C(c2ccccc2)c2ccncc2)cc1,TGI,M19-MEL melanoma,> 100 µM
same,TGI,SK-MEL-5 melanoma,> 100 µM
same,TGI,IGROV1 ovarian,> 100 µM
same,TGI,EKVX NSCLC,> 100 µM
same,TGI,HOP-18 NSCLC,> 100 µM
same,TGI,CAKI-1 renal,> 100 µM
same,TGI,NCI-H226 lung,> 100 µM
same,TGI,MOLT-4 leukemia,> 100 µM
same,TGI,OVCAR-8 ovarian,> 100 µM
same,TGI,HCT-116 colon,> 100 µM
same,TGI,OVCAR-5 ovarian,> 100 µM
same,TGI,NCI-H23 lung,> 100 µM
same,TGI,ACHN renal,> 100 µM
same,TGI,SNB-19 CNS,> 100 µM
same,TGI,SF-295 CNS,> 100 µM
same,TGI,TK-10 renal,> 100 µM
same,TGI,RPMI-8226 leukemia,> 100 µM
same,TGI,HCT-15 colon,> 100 µM
same,TGI,SF-268 CNS,> 100 µM
same,TGI,UO-31 renal,> 100 µM
same,TGI,SK-OV-3 ovarian,> 100 µM
same,TGI,SK-MEL-2 melanoma,> 100 µM
same,TGI,HCC-2998 colon,> 100 µM
same,TGI,SK-MEL-28 melanoma,> 100 µM
same,TGI,K-562 leukemia,> 100 µM
same,TGI,SNB-78 CNS,> 100 µM
same,TGI,KM20L2 colon,> 100 µM
same,TGI,A498 renal,> 100 µM
same,TGI,OVCAR-4 ovarian,> 100 µM
same,TGI,SNB-75 CNS,74.3 µM
same,TGI,COLO 205 colon,> 100 µM
same,TGI,A549 NSCLC,> 100 µM
same,TGI,LOX IMVI melanoma,> 100 µM
same,TGI,U251 CNS,> 100 µM
same,TGI,786-0 renal,> 100 µM
same,TGI,NCI-H460 lung,> 100 µM
same,TGI,HT29 colon,> 100 µM
same,TGI,SN12C renal,> 100 µM
same,TGI,XF 498 CNS,> 100 µM
same,TGI,DLD-1 colon,> 100 µM
same,TGI,UACC-62 melanoma,> 100 µM
same,TGI,DMS 114 small cell lung,> 100 µM
same,TGI,RXF-631 renal,> 100 µM
same,TGI,OVCAR-3 ovarian,> 100 µM
same,TGI,M14 melanoma,> 100 µM
same,TGI,SF-539 CNS,> 100 µM
same,TGI,KM12 colon,> 100 µM
same,TGI,UACC-257 melanoma,> 100 µM
same,TGI,SW-620 colon,> 100 µM
same,TGI,MALME-3M melanoma,> 100 µM
same,TGI,CCRF-CEM leukemia,> 100 µM
same,TGI,DMS 273 small cell lung,> 100 µM
same,TGI,HOP-62 NSCLC,> 100 µM
